# Measurements taken from patent publication US20240218022A1, “ANTI-VISTA MACROCYCLIC PEPTIDES AND COMPOSITIONS” (BRISTOL-MYERS SQUIBB COMPANY, priority 2022, published 2024).
# Positions of bridges follow the written chain, without caps; N, C: chain ends. Non-standard residues stand in square brackets, D forms with d. Residues, ends and D or L forms follow the SMILES beside them. ξ: configuration not given here. NMeIle(3ξ) = CCC(C)[C@H](NC)C(=O)O; NMeD = CN[C@@H](CC(=O)O)C(=O)O; NMeL = CN[C@@H](CC(C)C)C(=O)O; Ahp(2) = CCCCC[C@H](N)C(=O)O; NMeNle = CCCC[C@H](NC)C(=O)O; Tle = CC(C)(C)[C@H](N)C(=O)O; NHexGly = CCCCCCNCC(=O)O; Nle = CCCC[C@H](N)C(=O)O; Orn = NCCC[C@H](N)C(=O)O
# Target: T1, mouse VISTA (mVISTA) (Mus musculus, UniProt Q9D659)
# T1 construct: expressed in transfected cells; host or cells: Human embryonic kidney 293T cells
# T1 sequence (Q9D659 33-308): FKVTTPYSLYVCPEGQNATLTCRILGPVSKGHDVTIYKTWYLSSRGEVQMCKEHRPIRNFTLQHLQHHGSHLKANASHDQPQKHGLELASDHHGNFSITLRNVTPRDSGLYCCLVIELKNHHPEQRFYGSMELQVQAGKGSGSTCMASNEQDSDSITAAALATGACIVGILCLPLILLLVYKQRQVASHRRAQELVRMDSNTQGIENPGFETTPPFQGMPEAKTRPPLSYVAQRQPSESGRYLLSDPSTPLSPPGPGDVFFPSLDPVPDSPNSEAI
# Assay: Cell-Based Binding High-Content Assay For mVISTA (HC CBA mVISTA)
# Details: read-out: HC CBA mVISTA IC50
# Method in brief: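 293T cells expressing mouse VISTA, with compounds added either after seeding ("no wash") or before seeding and then washed out after 1 h. Biotinylated peptide 2 nM for 30 min at room temperature, then detection with Alexa 647–streptavidin. After fixation with Hoechst stain, plates were high-content imaged; IC50 from four-parameter logistic fit.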
row,IC50 [nM],SMILES
1,11.6,CCCCCCN1CC(=O)N[C@@H](Cc2ccc(O)cc2)C(=O)N[C@@H](CCCC)C(=O)N[C@@H](CC(=O)O)C(=O)N[C@@H](CCCNC(=N)N)C(=O)N[C@@H](CC(C)C)C(=O)N[C@@H](CCCCC)C(=O)N2CCC[C@H]2C(=O)N[C@@H](C(C)C)C(=O)N[C@@H](CC(=O)O)C(=O)N[C@H](C(=O)N[C@@H](CO)C(N)=O)CSCC(=O)N[C@@H](Cc2ccccc2)C(=O)N[C@@H](Cc2c[nH]c3ccccc23)C(=O)N[C@@H](CC(=O)O)C1=O [Example 1366] ({CH2CO}-FWD[NHexGly]Y[Nle]DRL[Ahp(2)]PVDCS-NH2; thioether N-14)
2,11.1,CCCCCCN1CC(=O)N[C@@H](Cc2ccc(O)cc2)C(=O)N[C@@H](CCCC)C(=O)N[C@@H](CC(N)=O)C(=O)N[C@@H](CCCNC(=N)N)C(=O)N(C)[C@@H](C(C)CC)C(=O)N[C@@H](CCCCC)C(=O)N2CCC[C@H]2C(=O)N[C@@H](C(C)C)C(=O)N[C@@H](CC(=O)O)C(=O)N[C@H](C(=O)NCC(=O)O)CSCC(=O)N[C@@H](Cc2ccccc2)C(=O)N[C@@H](Cc2c[nH]c3ccccc23)C(=O)N[C@@H](CC(=O)O)C1=O (some centres unmarked) [Example 1367] ({CH2CO}-FWD[NHexGly]Y[Nle]NR[NMeIle(3ξ)][Ahp(2)]PVDCG-OH; thioether N-14)
3,37,CCCCCCN1CC(=O)N[C@@H](Cc2ccc(O)cc2)C(=O)N[C@@H](CCCC)C(=O)N[C@@H](CC(N)=O)C(=O)N[C@@H](CCCNC(=N)N)C(=O)N(C)[C@@H](CC(=O)O)C(=O)N[C@@H](CCCCC)C(=O)N2CCC[C@H]2C(=O)N[C@@H](C(C)C)C(=O)N[C@@H](CC(=O)O)C(=O)N[C@H](C(=O)NCC(=O)O)CSCC(=O)N[C@@H](Cc2ccccc2)C(=O)N[C@@H](Cc2c[nH]c3ccccc23)C(=O)N[C@@H](CC(=O)O)C1=O [Example 1368] ({CH2CO}-FWD[NHexGly]Y[Nle]NR[NMeD][Ahp(2)]PVDCG-OH; thioether N-14)
4,3.5,CCCCCCN1CC(=O)N[C@@H](Cc2ccc(O)cc2)C(=O)N[C@@H](CCCC)C(=O)N[C@@H](CC(N)=O)C(=O)N[C@@H](CCCNC(=N)N)C(=O)N(C)[C@@H](CC(C)C)C(=O)N[C@@H](CCCCC)C(=O)N2CCC[C@H]2C(=O)N[C@@H](C(C)C)C(=O)N[C@@H](CC(=O)O)C(=O)N[C@H](C(=O)NCC(=O)O)CSCC(=O)N[C@@H](Cc2ccccc2)C(=O)N[C@@H](Cc2c[nH]c3ccccc23)C(=O)N[C@@H](CC(=O)O)C1=O [Example 1369] ({CH2CO}-FWD[NHexGly]Y[Nle]NR[NMeL][Ahp(2)]PVDCG-OH; thioether N-14)
5,18.7,CCCCCCN1CC(=O)N[C@@H](Cc2ccc(O)cc2)C(=O)N[C@@H](CCCC)C(=O)N[C@@H](CC(N)=O)C(=O)N[C@@H](CCCNC(=N)N)C(=O)N(C)[C@@H](CC(C)C)C(=O)N[C@@H](CCCCC)C(=O)N2CCC[C@H]2C(=O)N[C@@H](C(C)C)C(=O)N[C@@H](CC(=O)O)C(=O)N[C@H](C(=O)N[C@@H](CO)C(=O)O)CSCC(=O)N[C@@H](Cc2ccccc2)C(=O)N[C@@H](Cc2c[nH]c3ccccc23)C(=O)N[C@@H](CC(=O)O)C1=O [Example 1370] ({CH2CO}-FWD[NHexGly]Y[Nle]NR[NMeL][Ahp(2)]PVDCS-OH; thioether N-14)
6,36.6,CCCCCCN1CC(=O)N[C@@H](Cc2ccc(O)cc2)C(=O)N[C@@H](CCCC)C(=O)N[C@@H](CC(N)=O)C(=O)N[C@@H](CCCNC(=N)N)C(=O)N(C)[C@@H](CCCC)C(=O)N[C@@H](CCCCC)C(=O)N2CCC[C@H]2C(=O)N[C@@H](C(C)(C)C)C(=O)N[C@@H](CC(=O)O)C(=O)N[C@H](C(=O)N[C@@H](CC(=O)O)C(N)=O)CSCC(=O)N[C@@H](Cc2ccccc2)C(=O)N[C@@H](Cc2c[nH]c3ccccc23)C(=O)N[C@@H](CC(=O)O)C1=O [Example 1371] ({CH2CO}-FWD[NHexGly]Y[Nle]NR[NMeNle][Ahp(2)]P[Tle]DCD-NH2; thioether N-14)
7,16.4,CCCCCCN1CC(=O)N[C@@H](Cc2ccc(O)cc2)C(=O)N[C@@H](CCCC)C(=O)N[C@@H](CC(=O)O)C(=O)N[C@@H](CCCN)C(=O)N(C)[C@@H](CCCC)C(=O)N[C@@H](CCCCC)C(=O)N2CCC[C@H]2C(=O)N[C@@H](C(C)(C)C)C(=O)N[C@@H](CC(=O)O)C(=O)N[C@H](C(=O)N[C@@H](CC(=O)O)C(N)=O)CSCC(=O)N[C@@H](Cc2ccccc2)C(=O)N[C@@H](Cc2c[nH]c3ccccc23)C(=O)N[C@@H](CC(=O)O)C1=O [Example 1372] ({CH2CO}-FWD[NHexGly]Y[Nle]D[Orn][NMeNle][Ahp(2)]P[Tle]DCD-NH2; thioether N-14)
8,14.8,CCCCCCN1CC(=O)N[C@@H](Cc2ccc(O)cc2)C(=O)N[C@@H](CCCC)C(=O)N[C@@H](CC(N)=O)C(=O)N[C@@H](CCCN)C(=O)N(C)[C@@H](CCCC)C(=O)N[C@@H](CCCCC)C(=O)N2CCC[C@H]2C(=O)N[C@@H](C(C)(C)C)C(=O)N[C@@H](CC(=O)O)C(=O)N[C@H](C(=O)N[C@@H](CC(=O)O)C(N)=O)CSCC(=O)N[C@@H](Cc2ccccc2)C(=O)N[C@@H](Cc2c[nH]c3ccccc23)C(=O)N[C@@H](CC(=O)O)C1=O [Example 1373] ({CH2CO}-FWD[NHexGly]Y[Nle]N[Orn][NMeNle][Ahp(2)]P[Tle]DCD-NH2; thioether N-14)
9,24.9,CCCCCCN1CC(=O)N[C@@H](Cc2ccc(O)cc2)C(=O)N[C@@H](CCCC)C(=O)N[C@@H](CC(N)=O)C(=O)N[C@@H](CCCN)C(=O)N(C)[C@@H](CCCC)C(=O)N[C@@H](CCCCC)C(=O)N2CCC[C@H]2C(=O)N[C@@H](C(C)(C)C)C(=O)N[C@@H](CO)C(=O)N[C@H](C(=O)N[C@@H](CC(=O)O)C(N)=O)CSCC(=O)N[C@@H](Cc2ccccc2)C(=O)N[C@@H](Cc2c[nH]c3ccccc23)C(=O)N[C@@H](CC(=O)O)C1=O [Example 1374] ({CH2CO}-FWD[NHexGly]Y[Nle]N[Orn][NMeNle][Ahp(2)]P[Tle]SCD-NH2; thioether N-14)
10,42.5,CCCCCCN1CC(=O)N[C@@H](Cc2ccc(O)cc2)C(=O)N[C@@H](CCCC)C(=O)N[C@@H](CC(=O)O)C(=O)N[C@@H](CCCNC(=N)N)C(=O)N(C)[C@@H](CCCC)C(=O)N[C@@H](CCCCC)C(=O)N2CCC[C@H]2C(=O)N[C@@H](C(C)(C)C)C(=O)N[C@@H](CO)C(=O)N[C@H](C(=O)N[C@@H](CC(=O)O)C(N)=O)CSCC(=O)N[C@@H](Cc2ccccc2)C(=O)N[C@@H](Cc2c[nH]c3ccccc23)C(=O)N[C@@H](CC(=O)O)C1=O [Example 1375] ({CH2CO}-FWD[NHexGly]Y[Nle]DR[NMeNle][Ahp(2)]P[Tle]SCD-NH2; thioether N-14)
11,36.6,CCCCCCN1CC(=O)N[C@@H](Cc2ccc(O)cc2)C(=O)N[C@@H](CCCC)C(=O)N[C@@H](CC(=O)O)C(=O)N[C@@H](CCCN)C(=O)N(C)[C@@H](CCCC)C(=O)N[C@@H](CCCCC)C(=O)N2CCC[C@H]2C(=O)N[C@@H](C(C)(C)C)C(=O)N[C@@H](CO)C(=O)N[C@H](C(=O)N[C@@H](CC(=O)O)C(N)=O)CSCC(=O)N[C@@H](Cc2ccccc2)C(=O)N[C@@H](Cc2c[nH]c3ccccc23)C(=O)N[C@@H](CC(=O)O)C1=O [Example 1376] ({CH2CO}-FWD[NHexGly]Y[Nle]D[Orn][NMeNle][Ahp(2)]P[Tle]SCD-NH2; thioether N-14)
